Results on 2 molecules are retold here after publication PMC3791137 (Journal of the American Chemical Society, 2013).

For data set [1] the following is noted: common buffers, physiological pH; cited from earlier work.
For data set [2], the system named is NSCs. Kind of data set: Sin-1-induced ZBR1 fluorescence change. The format is cell-based, rat. The settings on record: 100 μM Sin-1, first 15 min; vehicle 105 ± 7%.
For data set [3] the following is noted: pH 9.5, excitation 572 nm; cited from earlier work.

As for `N=c1c[n+](N2CCOCC2)[n-]o1` [Sin-1, 3-morpholinosydnonimine], the Half-life in data set [1] was 14 to 26 min. Besides, the “Fluorescence intensity of ZBR1 after Sin-1” value in data set [2] turned out to be 89 ± 4%. `O=c1ccc2nc3ccc(O)cc3oc-2c1` [resorufin]: the “Quantum yield (standard)” value in data set [3] was 0.74.
